In US11000708B2 (priority 2015, dated 2021):
Values joined by “and” are separate entries in the source; they are usually repeats but may differ in a detail not shown here. Equal values may be shown once. Read-outs that look alike come from different tables or passages of the source.

Tests used:
[1] = tested on: clinically-separated Mycobacterium tuberculosis strains; assay type: cell-based
[2] = tested on: 518 clinically-separated Mycobacterium tuberculosis strains; conditions: cited from earlier work
[3] = 518 clinically-separated strains
[4] = among 321 strains resistant to one or more first-line drugs

CO[C@H]1/C=C/O[C@@]2(C)Oc3c(C)c(O)c4c(O)c(c(/C=N/N5CCN(C)CC5)c(O)c4c3C2=O)NC(=O)/C(C)=C\C=C\[C@H](C)[C@H](O)[C@@H](C)[C@@H](O)[C@@H](C)[C@H](OC(C)=O)[C@@H]1C [Rifampicin, rifampicin]
growth of bacterial colonies on drug-containing culture medium ([1]; rifampicin 50 μg/ml, Table 5, per clinical strain): 4+ (positive (4+) if the bacterial colonies closely grow on the slant face of the culture medium and account for ¾ or more of the area of the slant face) and 3+ (positive (3+) if the bacterial colonies closely grow on the slant face of the culture medium or are partially fused and account for ½ or more of the slant face and ¾ or less of the slant face) and 2+ (positive (2+) if the bacterial colonies dispersedly grow on the slant face of the culture medium and account for ¼ or more of the slant face and ½ or less of the slant face)
growth of bacterial colonies on drug-containing culture medium ([1]; rifampicin 50 μg/ml, Table 6, isoniazid- and rifampicin-resistant clinical strains): 4+ (positive (4+) if the bacterial colonies closely grow on the slant face of the culture medium and account for ¾ or more of the area of the slant face) and 3+ (positive (3+) if the bacterial colonies closely grow on the slant face of the culture medium or are partially fused and account for ½ or more of the slant face and ¾ or less of the slant face) and 2+ (positive (2+) if the bacterial colonies dispersedly grow on the slant face of the culture medium and account for ¼ or more of the slant face and ½ or less of the slant face)

[H]/N=C(/N)N[C@H]1[C@H](O)[C@@H](O)[C@H](O[C@@H]2O[C@@H](C)[C@](O)(C=O)[C@H]2O[C@@H]2O[C@@H](CO)[C@H](O)[C@@H](O)[C@@H]2NC)[C@@H](N/C(N)=N\[H])[C@@H]1O [streptomycin]
resistance rate of Mycobacterium tuberculosis [2, 3]: 45.95%

NNC(=O)c1ccncc1 [Isoniazid, isoniazid]
growth of bacterial colonies on drug-containing culture medium ([1]; isoniazid 0.2 μg/ml, Table 4, per clinical strain): 4+ (positive (4+) if the bacterial colonies closely grow on the slant face of the culture medium and account for ¾ or more of the area of the slant face) and 3+ (positive (3+) if the bacterial colonies closely grow on the slant face of the culture medium or are partially fused and account for ½ or more of the slant face and ¾ or less of the slant face)
resistance rate of Mycobacterium tuberculosis [2, 3]: 53.67%

NCC[C@H](O)C(=O)N[C@@H]1C[C@H](N)[C@@H](O[C@H]2O[C@H](CN)[C@@H](O)[C@H](O)[C@H]2O)[C@H](O)[C@H]1O[C@H]1O[C@H](CO)[C@@H](O)[C@H](N)[C@H]1O [amikacin]
resistance rate of Mycobacterium tuberculosis [2, 3]: 15.83%
resistance rate of Mycobacterium tuberculosis [2, 4]: 25.55%

carrimycin
number of strains sensitive to 1 μg/ml of carrimycin ([1]; 1 μg/ml): 54 strains
share of total effective bacteria sensitive to 1 μg/ml of carrimycin ([1]; 1 μg/ml): 31.39%
number of strains with activity superior to that of isoniazid and that of rifampicin ([1]; 20 μg/ml carrimycin vs 1 μg/ml isoniazid and 250 μg/ml rifampicin): 23 strains
number of strains with activity superior to that of isoniazid ([1]; 20 μg/ml carrimycin, isoniazid-resistant clinical strains): 37 strains
number of strains with activity superior to that of rifampicin ([1]; 20 μg/ml carrimycin, rifampicin-resistant clinical strains): 39 strains
total effective rate ([1]; 172 of 240 clinically-separated strains): 71.66%
share of effective strains with activity superior to isoniazid ([1]; of 172 effective strains): 21.5%
share of effective strains with activity superior to isoniazid and rifampicin ([1]; of 172 effective strains): 13.4%
share of effective strains with activity superior to rifampicin ([1]; of 172 effective strains): 22.7%
share of effective strains with sensitivity equivalent to H37Rv ([1]; of 172 effective strains): 53.48%
number of strains with sensitivity equivalent to that of quality control strains H37Rv ([1]; of 172 sensitive strains): 92 strains
number of strains with sensitivity obviously higher than that of quality control strains H37Rv ([1]; of 172 sensitive strains): 80 strains
number of strains sensitive to carrimycin ([1]; of 240 clinically-separated strains, 1 μg/ml or 20 μg/ml): 172 strains

capreomycin
resistance rate of Mycobacterium tuberculosis [2, 3]: 21.81%
resistance rate of Mycobacterium tuberculosis [2, 4]: 33.02%
